The text below walks through data of PMC5882690, “Mechanical characteristics of beta sheet-forming peptide hydrogels are dependent on peptide sequence, concentration and buffer composition” (Royal Society Open Science, 2018).

Where a SMILES comes first, the peptide text is derived from it.

Series [1] can be described thus: Fibre width of dried SAP hydrogels by scanning electron microscopy. The format is physicochemical. Particulars: SEM of critical-point-dried hydrogel, 15 mg ml^-1 in Tris–NaCl, ionic strength 140 mM, pH 7.2–8.0, assembled overnight; 25 fibre widths per picture, ImageJ; mean ± SD. The method, then:
Nanofibrillar structure of SAP hydrogels was formed for scanning electron microscopy (SEM) (Zeiss SUPRA® 40VP) at a concentration of 15 mg ml^−1 in Tris–NaCl buffer to a final ionic strength of 140 mM and a final pH of 7.2–8.0, as described in table 1. SAP hydrogels were assembled overnight. Self-assembly was apparent due to the gelation and β-sheet formation of the fibrillar structure as described by Aggeli et al. and Carrick et al. (by circular dichroism, Fourier transform infrared spectroscopy and transmission electron microscopy) and was further confirmed in the present study for P11-4 and P11-8 (see electronic supplementary material, figures S4, S6 and S7). SAP hydrogels were fixed with a glutaraldehyde solution (4% in borate buffer, using 0.1 ml per 0.1 ml peptide hydrogel) for 24 h. Gels were then dehydrated by increasing ethanol concentration in steps (25%, 50%, 60%, 70%, 80%, 90%, 100% ethanol) at 15 min intervals. The last step (100% ethanol) was repeated three times. Afterwards, critical point drying (Balzers Union, CPD020) was applied to stabilize the natural three-dimensional network structure. Finally, the network structures were glued on an SEM stub with carbon tape and sputter coated with 2.5 nm gold–palladium (Thermo VG Scientific, Polaron, SC7620). […] Fibre diameters were analysed with IMAGEJ software. Twenty-five fibre widths were measured for each picture.

Series [2] in a line: SAP hydrogel dissolution in PBS or TYSB medium (peptide content of supernatant). The format is physicochemical. As to conditions: 37°C, 20 mg ml^-1 P11-4, 15 mg ml^-1 others, Qubit Protein Assay, mean ± SD, n = 3. The method, then:
SAP hydrogel dissolution and degradation properties of the peptides in the presence and absence of neutrophilic elastase and microorganisms were measured by determining the peptide content of the supernatant. Therefore, SAPs were assembled in PBS at concentrations of 20 mg ml^−1 for P11-4 and 15 mg ml^−1 for P11-8, P11-13/14 and P11-28/29. The assay was performed in a 96-well plate with gel volumes of 100 µl well^−1. 86 units ml^−1 elastase (Innovative Research, USA) (100 µg ml^−1) were added to the assembled peptides in PBS solution. After 24 h incubation at 37°C and 5% CO2, 10 µl of the supernatant was sterilely removed after 24 and 168 h and measured indirectly by monomeric peptide concentration in the supernatant using the Qubit® Protein Assay (Q33211; Thermo Fisher; fluorescence at 485/590 nm) and transferred back for the remainder of the experiment allowing peptide hydrogel degradation measurement without disturbing the hydrogel to buffer fluid balance. The measurements are based on the fact that degraded peptides cause disassembly of the fibrils, as assembly rules are no longer given, resulting in an increase in monomeric SAP in solution. SAP concentrations were calculated based on respective peptide standard curves. For data analysis, SAP concentrations measured in the supernatant were calculated as a percentage of the specific starting concentrations of each peptide system. Statistical analysis was done using a two-way ANOVA followed by Sidak's multiple comparison test.
The stability of the hydrogels versus bacterial degradation was tested by the exposure to the bacterial strains Streptococcus mutans (S. mutans), Pseudomonas aeruginosa (P. aeruginosa) and Staphylococcus aureus (S. aureus; all from Leibniz-Institut DSMZ GmbH). Therefore, the bacterial strains were applied (10^6 CFU ml^−1) on the top of each gel (20 mg ml^−1 for P11-4 and 15 mg ml^−1 for P11-8, P11-13/14 and P11-28/29) in their respective media (Neurobasal medium for P. aeruginosa (Thermo Fisher), Tryptic Soy Broth (TYSB) medium for S. mutans and S. aureus). After 1 and 7 days of incubation at 37°C, 10 µl of each supernatant was analysed subsequent to centrifugation of the samples using the Qubit® Protein Assay. Calculations were performed as described previously for the elastase degradation study. Statistical analysis was performed with Graphpad Prism version 6.0 using a two-way ANOVA followed by Dunnett's multiple comparison test.

Series [3] can be described thus: Oscillatory time sweep (hydrogel stiffness at t = 100 min, gelation speed). The format is physicochemical. As to conditions: for Stiffness (storage modulus G′ at t = 100 min) / Speed (gelation speed, dG′/dt 5–10 min): time sweep, mean ± SD. The method, then:
Dynamic oscillatory amplitude sweeps up to 150% strain were performed at 37°C using an Anton Paar MCR301 rheometer equipped with a 10 mm diameter stainless steel parallel plate geometry at a 0.9 mm measuring gap. The amplitude sweep tests were performed to measure storage moduli (G′) within the linear viscoelastic region. Calculations of the gel breaking points (yield points) were performed with MATLAB depending on the different peptide concentrations. Therefore, the yield strain was defined as the point where G′ is less than 95% of its original value. Oscillatory time sweep experiments were performed to study the gelation speed and hydrogel stiffness. Time sweeps up to 150 min measuring time using a frequency of 1 rad s^−1 and amplitude gamma of 0.05% were used. SAP hydrogel stiffness was determined after the equilibrium of the storage modulus (G′) was reached (t = 100 min). To determine the gelation speed, the slope of increasing storage modulus over time was calculated in the interval from t = 5 to 10 min after placing peptide solutions onto the rheometer.
To study the influence of divalent ions and different media on SAP hydrogel stiffness, gelation speed and gel breaking points (yield points), SAPs were prepared at a concentration of 15 mg ml^−1 in the different media, Tris–NaCl, Tris–MgSO4, DMEM or artificial saliva, according to table 1. All experiments were done at least in duplicate. Statistical evaluation was performed with GRAPHPAD PRISM version 6.0 based on a one-way ANOVA test followed by Tukey's multiple comparison test.

The conditions of series [4]: literature, cited from earlier work. An excerpt:
The topographical structure of SAP hydrogels is important for the three-dimensional arrangement of cells within scaffolds. Zhang et al. state that the fibres of SAP hydrogels resemble the nanometre scale of natural polymer networks and thus allow three-dimensional cell growth. […] (figure 1). […] Moreover, they observed the formation fibre entanglements with diameters of 30 nm. The phenomenon of fibril clustering was also reported by Zhang et al. for the peptides KFE8 and KLD12, characterized by a typical single fibre width of 7 nm and thicker diameters for the bundles of fibres.

Setting [5] is: 15 mg ml^-1, artificial saliva, n = 3.
The mark [6] stands for this setting: 15 mg ml^-1, serum-free DMEM, n = 3.
Where [7] appears, read: artificial saliva versus DMEM, 15 mg ml^-1.

For the compound `CC(=O)N[C@@H](CCC(N)=O)C(=O)N[C@@H](CCC(N)=O)C(=O)N[C@@H](CCCNC(=N)N)C(=O)N[C@@H](Cc1ccccc1)C(=O)N[C@@H](CCC(=O)O)C(=O)N[C@@H](Cc1c[nH]c2ccccc12)C(=O)N[C@@H](CCC(=O)O)C(=O)N[C@@H](Cc1ccccc1)C(=O)N[C@@H](CCC(=O)O)C(=O)N[C@@H](CCC(N)=O)C(=O)N[C@@H](CCC(N)=O)C(N)=O` [P11-4, CH3CO-QQRFEWEFEQQ-NH2] (Ac-QQRFEWEFEQQ-NH2), the mean fibre width in series [1] was 32 ± 6.6 nm. The “relative peptide amount in supernatant (% of peptide starting concentration)” value in series [2] (Medium (TYSB), 1 d) was 0.4± 0.1%; in series [2] (Medium (TYSB), 7 d), 4.6± 2.5%; in series [2] (PBS, 1 d, gel assembled in PBS, 100 µl, fluorescence 485/590 nm), 10.6± 5.7%; in series [2] (PBS, 7 d, gel assembled in PBS, 100 µl, fluorescence 485/590 nm), 9.4± 4.4%. Also, the “Stiffness (storage modulus G′ at t = 100 min)” value in series [3] (15 mg ml^-1, Tris–MgSO4, 1 rad s^-1, 37°C, n = 3) stood at 9.5±2.7 kPa; in series [3] (15 mg ml^-1, Tris–NaCl, 1 rad s^-1, 37°C, n = 3), 5.0± 2.1 kPa; in series [3] (setting [5]), 4.9 ± 1.6 kPa; in series [3] (setting [6]), 0.4± 0.01 kPa. Also, the “Speed (gelation speed, dG′/dt 5–10 min)” value came out at 0.8±0.1 G`/min in series [3] (15 mg ml^-1, Tris–MgSO4); 1.6± 0.6 G`/min in series [3] (15 mg ml^-1, Tris–NaCl); 2.3 ± 0.9 G`/min in series [3] (setting [5]); 1.3 ± 0.4 G`/min in series [3] (setting [6]). Moreover, the “factor of increase of gelation (speed) in artificial saliva” value in series [3] (setting [7]) worked out at 1.8. For the same compound, the “factor of increase of hydrogel stiffness if prepared with artificial saliva” value in series [3] (setting [7]) is listed as 12. Besides, in series [4] (P11-4 and P11-8 prepared in NaCl), the fibril width is 14 nm. The “diameter of fibre entanglements” value in series [4] (prepared in NaCl) is on record as 30 nm.
